Data: publication PMC6413183, “Regulatory Aspects of the Vacuolar CAT2 Arginine Transporter of S. lycopersicum: Role of Osmotic Pressure and Cations” (International Journal of Molecular Sciences, 2019)
Read-outs that look alike come from different tables or passages of the source. Each block holds one compound with its values, some of them ahead of it.

Tests used:
SlCAT2 [1] = assay: [3H]Arg uptake in proteoliposomes reconstituted with recombinant SlCAT2; format: biochemical, S. lycopersicum; details: for effect of intraliposomal cations on [3H]Arg uptake: cation in internal compartment at about vacuolar concentration, K+ and Na+ versus no osmolytes, extent equal to isoosmolar sucrose (osmotic effect); for inhibition of [3H]Arg uptake by external divalent cations / inhibition of [3H]Arg uptake by external monovalent cations: extraliposomal cation at about cytosolic concentration; for inhibition of [3H]Arg uptake by external divalent cations: with respect to sucrose (1.2 mM) used as control of osmolality; for effect of external K+ salts on [3H]Arg uptake: salt in extraliposomal compartment, KCl compared to K-gluconate; for inhibition of [3H]Arg uptake by external monovalent cations: with respect to 40 mM sucrose used as control of osmolality
Protocol: The desalted SlCAT2 was reconstituted by removing the detergent from mixed micelles containing detergent, protein, and phospholipids by incubation with Amberlite XAD-4 in a batch-wise procedure, as previously described. The composition of the initial mixture used for reconstitution (except when differently indicated) was 400 µL of the purified protein (6 µg protein in 0.1% DDM), 80 µL of 10 % TX-100, 120 µL of 10% egg yolk phospholipids in the form of sonicated liposomes prepared as previously described, 15 mM ATP, and 10 mM Tris Hepes pH 7.5 (except where differently indicated) in a final volume of 700 µL. After vortexing, this mixture was incubated with 0.5 g Amberlite XAD-4 under rotatory stirring (1200 rpm) at 23 °C for 40 min in a batchwise procedure as previously pointed out.
Five-hundred-and-fifty microliters of proteoliposomes were passed through a Sephadex G-75 column (0.7 cm diameter × 15 cm height) preequilibrated with 10 mM Tris Hepes pH 7.5. From these columns, 550 µL of proteoliposomes were collected and divided into aliquots (samples) of 100 µL. Transport was started by adding 100 µM of [^3H]Arg to the proteoliposome samples. The pH gradient experiments were performed reconstituting protein in liposome with 10 mM Tris Hepes pH 5.5. After incubation with Amberlite XAD 4 resin, 550 µL of proteoliposomes were passed through a Sephadex G-75 column preequilibrated with 0.5 mM Tris Hepes pH 5.5.
The changes in external/internal osmolality were performed by adding in the extraliposomal/intraliposomal compartment appropriate concentrations of sucrose as indicated in the figure legend.
Transport reaction was stopped by adding 5 mM Pyridoxal Phosphate (PLP); according to the stop inhibitor method, the same inhibitor was added at time zero to control samples (blank). The initial rate was measured in 10 min, i.e., in the linear range of time courses as previously described. The PLP insensitive radioactivity associated with the control samples (blank) was less than 30% with respect to the PLP-sensitive arginine transport.
The experimental values were corrected by subtracting the respective controls. Specific activity was calculated and expressed as nmol/mg at a given time of measurement or as nmol/(mg × min) in the case of initial rate measurement. For calculation of initial rate, transport was measured in 10 min, i.e., within the initial linear part of the uptake. Grafit 5.0.13 software (Erithacus Software, West Sussex, UK) was used to derive IC50 values in inhibition assays and to measure transport rate by first-order rate equation and by a single exponential decay with offset.

SlCAT2 [2] = assay: [3H]Arg efflux from preloaded proteoliposomes reconstituted with SlCAT2; format: biochemical, S. lycopersicum; details: 0.45 mM Mg2+ in the extraliposomal compartment; proteoliposomes preloaded with 100 µM [3H]Arg
Protocol: Figure 9 Efflux from proteoliposomes reconstituted with SlCAT2. SlCAT2 was purified and reconstituted in proteoliposomes as described in Section 4.4. Arginine efflux was measured at the indicated time, as described in Section 4.5. Internal residual radioactivity was measured as percent with respect to control (time 0), in the absence (open circle) or in the presence (closed circle) of 0.45 mM Mg^2+ in the extraliposomal compartment. Data are plotted using the single exponential equation with offset as described in Section 4.5. Results are the means ± SD from three experiments.
For efflux measurements, proteoliposomes containing 15 mM ATP were preloaded by incubation with 100 µM [^3H]Arg (1 µCi/mL) for 90 min [64]. In both uptake and efflux, transport was stopped by passing 100 µL of each sample through a Sephadex G-75 column (0.6 cm diameter × 8 cm height) in order to separate the external from the internal radioactivity. Samples were eluted with 1 mL 50 mM NaCl and collected in 4 mL of scintillation mixture, vortexed and counted.
The experimental values were corrected by subtracting the respective controls. Specific activity was calculated and expressed as nmol/mg at a given time of measurement or as nmol/(mg × min) in the case of initial rate measurement. For calculation of initial rate, transport was measured in 10 min, i.e., within the initial linear part of the uptake. […]

[3] = cation in extraliposomal compartment (NaCl, K-gluconate, NH4Cl, MgCl2), 100 μM [3H]Arg, 20 min, proteoliposomes containing 200 mM sucrose and 15 mM ATP, pH 7.5, read-out: IC50 for inhibition of [3H]Arg uptake by external cations

Compound: Nc1ncnc2c1ncn2[C@@H]1O[C@H](COP(=O)(O)OP(=O)([O-])OP(=O)([O-])O)[C@@H](O)[C@H]1O.[Na+].[Na+] [ATP]
- effect of extraliposomal ATP on [3H]Arg uptake (SlCAT2 [1]; ATP (Na+)2 salt added externally, partially due to Na+ and osmolality, 200 mM sucrose and 15 mM ATP inside, pH 7.5, 20 min): inhibited

Compound: CC(C)CCC[C@@H](C)[C@H]1CC[C@H]2[C@@H]3CC=C4C[C@@H](OC(=O)CCC(=O)O)CC[C@]4(C)[C@H]3CC[C@]12C [CHS, Cholesteryl hemisuccinate, reference compound]
- stimulation of [3H]Arg uptake by CHS in the proteoliposomal membrane (SlCAT2 [1]; 1 mg of CHS in 1 mL proteoliposomes, corresponding to 10% of total lipid composition, 20 min, pH 7.5): up to 30%

Compound: [Ca+2].[Cl-].[Cl-] [Ca^2+]
- effect of intraliposomal cations on [3H]Arg uptake (SlCAT2 [1]; 15 mM ATP, pH 7.5, 20 min): did not exert any significant effect
- inhibition of [3H]Arg uptake by external divalent cations (SlCAT2 [1]; 20 min, pH 7.5): did not exert a significant effect

Compound: O=C([O-])[C@H](O)[C@@H](O)[C@H](O)[C@H](O)CO.[K+] [K-gluconate]
- effect of external K+ salts on [3H]Arg uptake (SlCAT2 [1]; 20 min, pH 7.5): no difference between the two K^+ salts

Compound: [Cl-].[K+] [KCl]
- effect of external K+ salts on [3H]Arg uptake (SlCAT2 [1]; 20 min, pH 7.5): inhibited

- IC50 (SlCAT2 [1]; [3]): 11.3 ± 1.2 mM
Compound: [K+] [K^+]
- effect of intraliposomal cations on [3H]Arg uptake (SlCAT2 [1]; 15 mM ATP, pH 7.5, 20 min): activation
- inhibition of [3H]Arg uptake by external monovalent cations (SlCAT2 [1]; 20 min, pH 7.5): ~ 40%

- IC50 (SlCAT2 [1]; Mg2+ in internal compartment, with 200 mM sucrose and 15 mM intraliposomal ATP, pH 7.5, 20 min, read-out: IC50 for inhibition of [3H]Arg uptake by intraliposomal Mg2+): 23 ± 9.9 mM
- IC50 (SlCAT2 [1]; [3]): 0.42 ± 0.18 mM
Compound: [Cl-].[Cl-].[Mg+2] [Mg^2+]
- effect of external Mg2+ on [3H]Arg efflux (SlCAT2 [2]): no, or only a slight, effect
- inhibition of [3H]Arg uptake by intraliposomal Mg2+ in the absence of internal ATP (SlCAT2 [1]; Mg2+ in internal compartment, 200 mM sucrose, no intraliposomal ATP, 20 min): virtually disappeared
- effect of intraliposomal cations on [3H]Arg uptake (SlCAT2 [1]; 15 mM ATP, pH 7.5, 20 min): strong inhibitory effect
- inhibition of [3H]Arg uptake by external divalent cations (SlCAT2 [1]; 20 min, pH 7.5): 33%

- IC50 (SlCAT2 [1]; [3]): 5.7 ± 1.49 mM
Compound: Cl.N [NH4^+]
- effect of intraliposomal cations on [3H]Arg uptake (SlCAT2 [1]; 15 mM ATP, pH 7.5, 20 min): did not exert any significant effect
- inhibition of [3H]Arg uptake by external monovalent cations (SlCAT2 [1]; 20 min, pH 7.5): ~ 40%

- IC50 (SlCAT2 [1]; [3]): 10.9 ± 0.8 mM
Compound: [Cl-].[Na+] [Na^+]
- effect of intraliposomal cations on [3H]Arg uptake (SlCAT2 [1]; 15 mM ATP, pH 7.5, 20 min): activation
- inhibition of [3H]Arg uptake by external monovalent cations (SlCAT2 [1]; 20 min, pH 7.5): ~ 40%

Compound: OC[C@H]1O[C@@](CO)(O[C@H]2O[C@H](CO)[C@@H](O)[C@H](O)[C@H]2O)[C@@H](O)[C@@H]1O [sucrose]
- effect of 1.2 mM external sucrose on transport activity (SlCAT2 [1]; 1.2 mM sucrose external, with respect to control without sucrose): no difference of activity
- effect of 40 mM external sucrose on transport activity (SlCAT2 [1]; 40 mM sucrose external, with respect to the condition without sucrose): caused a reduction of transport activity
- [3H]Arg uptake as percent of the control with external sucrose (SlCAT2 [1]; 50 mM sucrose in external compartment, 200 mM sucrose and 15 mM ATP inside, pH 7.5, 10 min): about 45%
- transport rate of [3H]Arg uptake with external sucrose (SlCAT2 [1]; 50 mM sucrose in external compartment, control without external sucrose 0.93 ± 0.2, 10 min, pH 7.5): 0.51 ± 0.18 nmol/mg/min
- change of [3H]Arg uptake with intraliposomal sucrose (SlCAT2 [1]; intraliposomal osmolality 50 to 175 mOsmol, plateau up to 225 mOsmol, 15 mM ATP, pH 7.5, 10 min): increased approximately three times
